The target of one assay is CDK12 (Homo sapiens (Human), UniProt Q9NYV4). Description: LANCE Ultra kinase assay, CDK12. The class given is biochemical. Here is the method:
(§1) The inhibitory activities of the test compound on the kinases were evaluated by LANCE Ultra assay, which was used for detecting ATP-dependent phosphorylation of a ULight-4E-BP1 (Thr37/Thr46) substrate peptide (150 nM). In short, enzymatic reactions were performed in a reaction buffer (25 mM HEPES (pH 7.5), 10 mM MgCl2, 0.01% BSA, 0.01% Tween 20, and 1 mM DTT). The assay was performed in a 384-well plate (6 μL). A final concentration of an ATP substrate was […], and a final concentration of the ULight-4E-BP1 (Thr37/Thr46) substrate peptide was 150 nM. A final concentration of CDK9, CDK12, or CDK13 was 0.3, 30, or 30 nM, respectively. Pre-incubation of the compound and the enzyme was performed at room temperature for 60 min. The reaction was stopped by adding 10 mM EDTA and 0.15 nM Eu-labeled anti-phospho-eIF4E-binding protein 1 (Thr37/46) antibody in LANCE detection buffer after incubation at room temperature for 15, 60, or 90 min. Time-resolved fluorescence (excitation, 320 nm; emission donor, 615 nm; emission acceptor, 665 nm) was monitored using an EnVision spectrophotometer (PerkinElmer). Readings were computed as (acceptor count/donor count)×1000. IC50 values were derived by fitting a sigmoidal dose-response curve to a plot of assay readouts of inhibitor concentrations. All fittings were computed using program Prism 5.03 (GraphPad Software, San Diego, CA).
A general note: Time-resolved FRET reads energy transfer from a long-lived donor to a nearby acceptor.

In another assay the target is CDK13 (Homo sapiens (Human), UniProt Q14004). Description: LANCE Ultra kinase assay, CDK13. The class given is biochemical. How it is done: as §1
Sequence of CDK13 (Q14004 whole entry, looked up): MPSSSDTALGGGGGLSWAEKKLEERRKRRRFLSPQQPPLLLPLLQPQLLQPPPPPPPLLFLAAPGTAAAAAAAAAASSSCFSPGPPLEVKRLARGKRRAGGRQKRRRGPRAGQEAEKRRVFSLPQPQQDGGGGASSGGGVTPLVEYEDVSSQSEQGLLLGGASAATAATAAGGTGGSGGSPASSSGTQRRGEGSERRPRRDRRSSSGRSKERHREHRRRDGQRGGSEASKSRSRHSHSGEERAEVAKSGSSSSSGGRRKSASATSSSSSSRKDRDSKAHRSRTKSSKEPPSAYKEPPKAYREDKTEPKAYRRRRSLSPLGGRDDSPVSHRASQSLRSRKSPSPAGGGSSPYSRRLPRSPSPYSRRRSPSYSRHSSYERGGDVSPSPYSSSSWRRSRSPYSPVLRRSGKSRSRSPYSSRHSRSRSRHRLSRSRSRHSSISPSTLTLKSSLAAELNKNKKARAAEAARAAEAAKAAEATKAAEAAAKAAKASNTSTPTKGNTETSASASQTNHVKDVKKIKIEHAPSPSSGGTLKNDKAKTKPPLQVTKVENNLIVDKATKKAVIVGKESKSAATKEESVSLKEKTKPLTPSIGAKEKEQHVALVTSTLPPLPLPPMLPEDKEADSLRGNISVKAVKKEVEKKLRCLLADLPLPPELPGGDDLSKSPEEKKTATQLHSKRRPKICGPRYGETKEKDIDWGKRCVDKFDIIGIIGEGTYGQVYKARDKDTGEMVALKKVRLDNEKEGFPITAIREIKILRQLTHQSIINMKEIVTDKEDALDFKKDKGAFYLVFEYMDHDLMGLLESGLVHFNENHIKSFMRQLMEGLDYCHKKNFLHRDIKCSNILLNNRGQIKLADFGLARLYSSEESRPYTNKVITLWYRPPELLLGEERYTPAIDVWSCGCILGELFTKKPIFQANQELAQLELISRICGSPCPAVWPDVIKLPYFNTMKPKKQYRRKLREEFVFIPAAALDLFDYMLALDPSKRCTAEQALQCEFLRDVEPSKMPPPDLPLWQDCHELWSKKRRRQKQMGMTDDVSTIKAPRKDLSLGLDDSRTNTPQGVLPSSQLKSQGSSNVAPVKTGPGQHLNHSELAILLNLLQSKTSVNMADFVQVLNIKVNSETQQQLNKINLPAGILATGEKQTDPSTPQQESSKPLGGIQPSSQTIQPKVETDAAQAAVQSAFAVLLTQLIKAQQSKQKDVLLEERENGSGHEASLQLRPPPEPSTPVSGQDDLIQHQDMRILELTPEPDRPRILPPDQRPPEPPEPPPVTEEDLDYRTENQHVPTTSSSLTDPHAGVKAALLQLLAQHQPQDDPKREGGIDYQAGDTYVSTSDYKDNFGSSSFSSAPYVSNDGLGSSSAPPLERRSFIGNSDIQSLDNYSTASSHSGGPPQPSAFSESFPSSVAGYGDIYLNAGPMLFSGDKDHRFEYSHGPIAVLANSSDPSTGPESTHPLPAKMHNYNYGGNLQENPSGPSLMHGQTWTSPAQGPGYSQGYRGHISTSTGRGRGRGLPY
Sequence of CDK13 (O75909 whole entry partner, looked up): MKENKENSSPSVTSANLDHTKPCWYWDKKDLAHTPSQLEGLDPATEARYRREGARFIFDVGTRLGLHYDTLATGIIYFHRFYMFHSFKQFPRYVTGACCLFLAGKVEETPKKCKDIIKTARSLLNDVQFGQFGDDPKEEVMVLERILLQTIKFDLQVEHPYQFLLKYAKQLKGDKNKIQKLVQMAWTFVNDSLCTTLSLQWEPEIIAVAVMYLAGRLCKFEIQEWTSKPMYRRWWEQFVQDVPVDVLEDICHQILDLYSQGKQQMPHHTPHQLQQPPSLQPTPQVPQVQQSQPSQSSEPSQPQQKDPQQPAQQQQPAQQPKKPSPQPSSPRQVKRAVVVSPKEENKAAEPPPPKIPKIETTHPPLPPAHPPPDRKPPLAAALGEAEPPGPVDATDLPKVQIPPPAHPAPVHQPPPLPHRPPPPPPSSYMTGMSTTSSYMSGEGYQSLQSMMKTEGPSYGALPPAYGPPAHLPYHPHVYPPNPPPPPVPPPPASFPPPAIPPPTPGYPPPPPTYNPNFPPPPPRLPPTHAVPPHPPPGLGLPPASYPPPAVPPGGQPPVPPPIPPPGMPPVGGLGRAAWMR
The next assay has as its target CDK9 (Homo sapiens (Human), UniProt P50750). Description: LANCE Ultra kinase assay, CDK9. It counts as biochemical. How it is done: as §1
The subject of the next assay is VCaP cell. Description: VCaP cell proliferation, CellTiter-Glo Luminescent Cell Viability Assay. The class given is cell-based. Conditions: Homo sapiens, VCaP cells. How it is done: The VCaP cell proliferation activity was determined by CellTiter-Glo Luminescent Cell Viability Assay (Promega, Madison, WI). The cells were inoculated on a 96-well plate in their respective culture mediums, and incubated in an incubator with 5% CO2 at 37° C. After incubation overnight, serial dilutions of the compound were prepared, and added into the 96-well plate. A CellTiter-Glo reagent (volume equal to the volume of the cell culture medium present in each well) was added (e.g., 100 μL of the reagent was added into 100 μL of the cell culture medium in the 96-well plate). The contents were mixed on an orbital shaker for 2 min to induce the cell lysis. The cells in the 96-well plate were incubated at room temperature for 10 min, to stabilize the luminescent signal. Luminescence was recorded: the luminescent signal for each well was acquired using an Infinite M1000 Pro plate reader (Tecan, Zurich, Switzerland), and the data was analyzed using GraphPad Prism software (GraphPad Software Inc, La Jolla, CA).
Background: Cellular ATP, detected with luciferase, serves as a proxy for viable cell number.

[1] abbreviates: 30 nM enzyme, 60 min pre-incubation, ULight-4E-BP1 150 nM, read-out: CDK12 IC50.
The mark [2] stands for this setting: 30 nM enzyme, 60 min pre-incubation, ULight-4E-BP1 150 nM, read-out: CDK13 IC50.

Where two headings read alike, the source gives them in different places.

As usually defined, the IC50 is the concentration needed to halve the response being measured.

Sequence of CDK12 (Q9NYV4 whole entry): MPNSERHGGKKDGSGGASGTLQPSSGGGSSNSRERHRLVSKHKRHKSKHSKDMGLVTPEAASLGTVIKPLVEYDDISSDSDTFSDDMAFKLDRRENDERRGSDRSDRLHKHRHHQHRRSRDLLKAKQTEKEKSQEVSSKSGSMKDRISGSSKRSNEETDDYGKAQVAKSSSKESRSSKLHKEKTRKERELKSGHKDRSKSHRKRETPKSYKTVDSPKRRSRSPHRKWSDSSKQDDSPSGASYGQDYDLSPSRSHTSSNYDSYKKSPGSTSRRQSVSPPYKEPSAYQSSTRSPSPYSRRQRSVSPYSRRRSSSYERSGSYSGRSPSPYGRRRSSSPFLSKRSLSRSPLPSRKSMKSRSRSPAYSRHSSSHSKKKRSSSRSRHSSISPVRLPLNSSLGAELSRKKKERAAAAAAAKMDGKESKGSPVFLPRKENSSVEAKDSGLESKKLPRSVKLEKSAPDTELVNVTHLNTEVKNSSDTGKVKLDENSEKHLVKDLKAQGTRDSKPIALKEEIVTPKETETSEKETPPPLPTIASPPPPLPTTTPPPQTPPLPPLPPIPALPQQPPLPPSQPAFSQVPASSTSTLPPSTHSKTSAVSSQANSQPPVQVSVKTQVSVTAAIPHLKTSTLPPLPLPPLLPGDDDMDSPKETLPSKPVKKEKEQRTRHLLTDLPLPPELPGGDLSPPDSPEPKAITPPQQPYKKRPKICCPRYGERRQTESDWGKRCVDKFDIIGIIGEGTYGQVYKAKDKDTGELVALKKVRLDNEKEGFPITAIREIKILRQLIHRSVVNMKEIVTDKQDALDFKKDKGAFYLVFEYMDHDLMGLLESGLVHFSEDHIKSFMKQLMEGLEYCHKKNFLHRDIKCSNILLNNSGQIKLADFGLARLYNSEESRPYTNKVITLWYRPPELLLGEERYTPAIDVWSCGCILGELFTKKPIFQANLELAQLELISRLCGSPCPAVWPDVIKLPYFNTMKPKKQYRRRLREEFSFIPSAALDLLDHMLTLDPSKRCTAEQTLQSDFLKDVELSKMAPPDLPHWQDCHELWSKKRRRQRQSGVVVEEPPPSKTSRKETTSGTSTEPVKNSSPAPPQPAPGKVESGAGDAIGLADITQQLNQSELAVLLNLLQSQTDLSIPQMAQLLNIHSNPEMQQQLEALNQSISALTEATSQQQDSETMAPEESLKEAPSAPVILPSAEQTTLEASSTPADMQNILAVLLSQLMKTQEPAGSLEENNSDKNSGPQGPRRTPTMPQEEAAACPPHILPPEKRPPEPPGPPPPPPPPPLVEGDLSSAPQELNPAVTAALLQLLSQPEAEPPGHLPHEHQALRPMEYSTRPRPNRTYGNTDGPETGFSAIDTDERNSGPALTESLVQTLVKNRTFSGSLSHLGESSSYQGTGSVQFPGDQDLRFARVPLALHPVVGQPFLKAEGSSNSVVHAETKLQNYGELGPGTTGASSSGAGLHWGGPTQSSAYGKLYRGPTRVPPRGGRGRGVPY
Sequence of CDK12 (O75909 whole entry partner): as the sequence (O75909 whole entry partner, looked up) above
Sequence of CDK9 (P50750 whole entry, looked up, species assumed): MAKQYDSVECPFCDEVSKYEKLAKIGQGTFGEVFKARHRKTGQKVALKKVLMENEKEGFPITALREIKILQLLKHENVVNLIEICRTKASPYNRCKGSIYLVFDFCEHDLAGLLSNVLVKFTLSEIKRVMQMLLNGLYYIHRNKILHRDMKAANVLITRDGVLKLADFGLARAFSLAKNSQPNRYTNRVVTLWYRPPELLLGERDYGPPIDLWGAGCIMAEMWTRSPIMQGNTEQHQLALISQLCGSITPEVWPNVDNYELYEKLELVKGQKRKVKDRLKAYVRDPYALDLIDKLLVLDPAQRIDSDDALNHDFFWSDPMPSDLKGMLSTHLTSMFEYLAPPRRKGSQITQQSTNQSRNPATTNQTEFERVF
Sequence of CDK9 (O60563 whole entry partner, looked up, species assumed): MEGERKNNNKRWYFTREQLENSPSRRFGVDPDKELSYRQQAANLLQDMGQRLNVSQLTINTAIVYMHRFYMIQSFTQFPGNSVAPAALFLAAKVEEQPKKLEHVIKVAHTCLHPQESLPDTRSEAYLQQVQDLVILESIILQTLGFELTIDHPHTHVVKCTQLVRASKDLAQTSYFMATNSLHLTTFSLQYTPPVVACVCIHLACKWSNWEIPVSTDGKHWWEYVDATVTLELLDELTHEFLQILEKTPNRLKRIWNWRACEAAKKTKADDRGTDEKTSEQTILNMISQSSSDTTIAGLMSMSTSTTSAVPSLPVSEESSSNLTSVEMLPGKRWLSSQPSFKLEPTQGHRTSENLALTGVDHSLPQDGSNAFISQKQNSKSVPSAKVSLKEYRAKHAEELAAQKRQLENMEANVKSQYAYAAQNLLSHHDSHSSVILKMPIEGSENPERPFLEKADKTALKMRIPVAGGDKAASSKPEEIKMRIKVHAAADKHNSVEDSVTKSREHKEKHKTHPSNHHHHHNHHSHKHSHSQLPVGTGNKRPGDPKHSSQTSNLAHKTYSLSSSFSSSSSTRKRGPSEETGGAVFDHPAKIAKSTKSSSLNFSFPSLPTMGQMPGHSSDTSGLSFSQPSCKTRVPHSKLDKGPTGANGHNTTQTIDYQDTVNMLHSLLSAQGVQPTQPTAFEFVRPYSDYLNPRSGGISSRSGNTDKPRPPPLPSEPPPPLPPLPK

Regarding `C=CC(=O)Nc1cc(N(C(=O)NCc2ccccc2)[C@H]2CC[C@H](Nc3ccc(C#N)cn3)CC2)ccc1N1CCC(N(C)C)CC1` [YJZ5118, N-(5-(3-benzyl-1-((1r,4r)-4-((5-cyanopyridin-2-yl)amino)cyclohexyl)ureido)-2-(4-(dimethylamino)piperidin-1-yl)phenyl)acrylamide], the IC50 against CDK12 is 15 to 50 nM; at CDK13, 15 to 50 nM; at CDK9 (0.3 nM enzyme, 60 min pre-incubation, ULight-4E-BP1 150 nM), above 500 nM; with VCaP cell, below 15 nM. Further, on CDK12 (in words), the “inhibitory activities on CDK12/13 kinase (CDK12)” value is given as “strong”. Also, the “inhibitory activities on CDK12/13 kinase (CDK13)” value at CDK13 (in words) is given as “strong”. Also, the “selectivity for CDK9 kinase” value at CDK9 (CDK12/13 versus CDK9, in words) is given as “good selectivity”.

Take `C=CC(=O)Nc1cc(N(C(=O)NCc2ccccc2)[C@H]2CC[C@H](Nc3ccc(C#N)cn3)CC2)ccc1N1C[C@H]2C[C@@H]1CN2C` [YJZ6096, N-(5-(3-benzyl-1-((1r,4R)-4-((5-cyanopyridin-2-yl)amino)cyclohexyl)ureido)-2-((1R,4R)-5-methyl-2,5-diazabicyclo[2.2.1]heptan-2-yl)phenyl)acrylamide]: the IC50 on CDK12 (setting [1]) fell in the range of 15 to 50 nM; at CDK13 (setting [2]), 15 to 50 nM; in the assay with VCaP cell, 50 to 500 nM.

Take `C=CC(=O)Nc1cc(N(C(=O)NCc2ccccc2)[C@H]2CC[C@H](Nc3ccc(C#N)cn3)CC2)ccc1N1CCN(C2COC2)CC1` [YJZ6028, N-(5-(3-benzyl-1-((1r,4r)-4-((5-cyanopyridin-2-yl)amino)cyclohexyl)ureido)-2-(4-(oxetan-3-yl)piperazin-1-yl)phenyl)acrylamide]: the IC50 at CDK12 (setting [1]) lay within 50 to 500 nM; on CDK13 (setting [2]) it was 50 to 500 nM; in the assay on VCaP cell it was 15 to 50 nM.

For `C=CC(=O)Nc1cc(N(C(=O)NCc2ccccc2)[C@H]2CC[C@H](Nc3ccc(C#N)cn3)CC2)ccc1N1CCOCC1` [YJZ5127, N-(5-(3-benzyl-1-((1r,4r)-4-((5-cyanopyridin-2-yl)amino)cyclohexyl)ureido)-2-morpholinophenyl)acrylamide], the figures for the IC50 on CDK12 (setting [1]), on CDK13 (setting [2]) and in the assay with VCaP cell were 50 to 500 nM, below 15 nM and 15 to 50 nM, respectively.

For the molecule `C=CC(=O)Nc1cc(N(C(=O)NCc2ccccc2)[C@H]2CC[C@H](Nc3ccc(C#N)cn3)CC2)ccc1N(C)CCN(C)C` [YJZ5125, N-(5-(3-benzyl-1-((1r,4r)-4-((5-cyanopyridin-2-yl)amino)cyclohexyl)ureido)-2-((2-(dimethylamino)ethyl)(methyl)amino)phenyl)acrylamide], the half-inhibitory concentration (IC50) at CDK12 (setting [1]) is 50 to 500 nM; on CDK13 (setting [2]) it was 50 to 500 nM; in the assay with VCaP cell it was below 15 nM.

As to `C=CC(=O)Nc1cc(N(C(=O)NCc2ccccc2)[C@H]2CC[C@H](Nc3ccc(C#N)cn3)CC2)ccc1N1CC(N(C)C)C1` [YJZ6077, N-(5-(3-benzyl-1-((1r,4r)-4-((5-cyanopyridin-2-yl)amino)cyclohexyl)ureido)-2-(3-(dimethylamino)azetidin-1-yl)phenyl)acrylamide], the IC50 at CDK12 (setting [1]), on CDK13 (setting [2]) and in the assay with VCaP cell was 50 to 500 nM in each case.

As to `C=CC(=O)Nc1cc(N(C(=O)NCc2ccccc2)[C@H]2CC[C@H](Nc3ccc(C#N)cn3)CC2)ccc1N1CCN[C@@H](C)C1` [YJZ8027], the IC50 at CDK12 (setting [1]) is 15 to 50 nM; on CDK13 (setting [2]), below 15 nM; in the assay with VCaP cell it was 15 to 50 nM.
